Assay results taken from patent US20230414582A1, “METHODS OF TREATING DISEASES AND DISORDERS” (Curis, Inc., priority 2020, published 2023).
“Also recorded” adds a separate entry of the source.

Key:
[1] = system: Waldenstrom's macroglobulinemia (WM); assay: Prior therapies of the WM patient (case history); assay type: in vivo, human
[2] = Phase I dose escalation trial of Compound 1 in NHL (NCT03328078): safety and tolerance; assay type: in vivo, human
Description: (§5) Seven dosing cohorts included 50 and 100 mg QD, and 50, 100, 200, 300, or 400 mg BID of daily continuous oral monotherapy in 21-Day cycles. Objective included safety and tolerance (primary), pk/pd and early efficacy (secondary), and biomarker correlations (exploratory). 31 patients with resistant or refractory, advanced NHL have been enrolled.

[3] = system: resistant or refractory, advanced NHL; assay: Phase I dose escalation trial of Compound 1 in NHL (NCT03328078): tumor response; assay type: in vivo, human; details: patient with DLBCL-GCB; initial dose 200 mg bid, final dose 300 mg bid
Description: as §5

[4] = system: Waldenstrom's macroglobulinemia (WM); assay: WM patient case on Compound 1 with intra-patient dose escalation: IgM, m-protein, response; assay type: in vivo, human
Description: The patient remained asymptomatic for over 4 years with a slow increase in m-protein and IgM during that time. By mid-2017 they started to experience increased fatigue. […] There was no evidence of CXCR4 genomic alteration. […] Several options were discussed including clinical trials and standard of care Bruton's tyrosine kinase inhibitor (BTKi) therapy.
Baseline testing in December 2018 included a bone marrow biopsy showing 5-10% involvement by WM, m-protein of 1.66 g/dL, IgM 2,801 mg/dL, and a computed tomography scan without pathological lymphadenopathy or hepatosplenomegaly. Quantitative immunoglobulins and serum protein electrophoresis were obtained each cycle to determine response to treatment (FIG. 1).
The patient initiated treatment at the first dose level, 50 mg. […] Using a standard 3+3 design the subsequent dose level, 100 mg po BID, was cleared per protocol. Considering evidence of response without noted toxicity, the patient was a candidate to escalate to 100 mg po BID starting with cycle 7 day 1 in April 2019. […] They reported a significant improvement in their quality of life with resolution of fatigue and returned to a rigorous daily exercise program that they had been unable to perform for the last 2 years due to WM-related symptoms. […]

[5] = Oral pharmacokinetics of Compound 1 in humans (FIG. 7); assay type: in vivo, human
Text: In summary, the oral pharmacokinetics of Compound 1 are desirable.

NF-κB p-p50 = assay: Immunohistochemistry of NF-κB p-p50 in tumor biopsies of NHL patients treated with Compound 1; assay type: in vivo, human; details: paired biopsies before and after/during treatment with Compound 1 (3 cases)
Description: Formalin-fixed, paraffin-embedded sections of human tonsil and lymphoma were used. Tissue sections (5 μm) were deparaffinized, and antigen retrieval was carried out at 90-100° C. in citrate buffer for 10-40 min. The sections were incubated in 1% […] for 10 minutes to quench endogenous tissue peroxidase. Tissue sections were then incubated with primary NF-κB p-p50-specific antibody for 1 hour at room temperature. The primary NF-κB p-p50-specific antibody used NF-κB p-p50 (S337), sc-271908 from Santa Cruz Biotechnology. The slides were stained using a standard EnVision+System-HRP kit (DAKO, Carpinteria, CA) according to the manufacture's protocol. Immunohistochemical reactions were developed with diaminobenzidine as the chromogenic peroxidase substrate, and slides were counterstained with hematoxylin. Negative control samples included replacement of the primary antibody with nonimmune IgG1 (Dako).
Specifically, nuclear and/or cytoplasmic expression of NF-kappaB p-p50 was found in all 6 SD cases treated with 50 mg QD (2 cases, tumor regression), 50 mg BID (1 case), 200 BID (1 case, tumor regression) and 400 BID (2 cases). Expression of NF-kappaB p-p50 was not detected in 7 of 8 cases with PD including patients treated with 50 mg QD (1 case), 100 mg QD (1 case), 100 mg BID (3 cases), 200 mg BID (1 case) and 400 BID (1 case). […]

[6] = system: NF-kB p-p50 S337 in OCL-LY10 cells; assay: Western blot of NF-kB p-p50 S337 in OCL-LY10 cells; assay type: cell-based; details: 3 μM and 10 μM, 48 h, vs DMSO
Description: (§1) At 48 h post-treatment, cell lysates were obtained. Protein sample concentration was quantified and equal amount 20 μg of whole protein extract was loaded in each well of SDS-polyacrylamide gel. Cell extracts were separated by 10% SDS-PAGE, transferred to nitrocellulose membrane, and probed as indicated. The following antibodies were used for immunoblot analysis: NF-kB p-p50 S337 (Santa Cruz Biotechnology) and b-actin (Cell Signaling Technology).

[7] = system: NF-kB p-p50 S337 in TF-1 cells; assay: Western blot of NF-kB p-p50 S337 in TF-1 (AML) cells; assay type: cell-based; details: TF-1 cells (AML cells, FIG. 13B), 3 μM and 10 μM, 48 h, vs DMSO
Description: as §1

[8] = Phase 1 study of Compound 1 in AML or high risk MDS (NCT04278768): safety; assay type: in vivo; details: Cohort 1, 200 mg BID
Description: (§2) This study will be conducted in 2 parts: an initial dose escalation and dose expansion phase. […] Three patients with AML or MDS will be enrolled at the designated dose. If none of the first 3 patients experience a DLT during the first cycle, patients may be enrolled into the next higher dose level of 300 mg bid until a safe and effective RP2D is established.
(§3) This study is expected to enroll approximately 18 patients to establish the initial RP2D.
(§4) The major study inclusion and exclusion criteria are as follows: Relapsed or refractory AML (primary or secondary, including treatment-related) after at least one standard treatment (including chemotherapy, re-induction therapy or stem cell transplantation) based on the assessment of the investigator or high/very high risk relapsed/refractory MDS (IPSS-R criteria), following at least 6 cycles of hypomethylating agents [HMA] or evidence of early progression.

AML or high risk MDS = assay: Phase 1 study of Compound 1 in AML or high risk MDS (NCT04278768): marrow response; assay type: in vivo, human; details: initial patients, 200 or 300 mg BID
Description: as §2, §3, §4

rituximab
response ([1]; induction 375 mg/m^2 IV weekly for 8 weeks then maintenance, 2005-2007): very good partial remission | IgM ([1]; retreatment 2011, numeric increase from 1476): 2042 mg/dL | response ([1]; retreatment June-September 2011): stable disease

Cc1cc(-c2nc(C(=O)Nc3cc4oc(N5CCOCC5)nc4nc3N3CC[C@@H](O)C3)co2)ccn1 [Compound 1]
Anemia, All Grades, [E] ([2]; 200 mg BID, N = 5): [1] | Neutropenia, All Grades, [E] ([2]; 200 mg BID, N = 5): [3] | Neutropenia, Grade 3 or Higher, [E] ([2]; 200 mg BID, N = 5): [2] | Anemia, All Grades, [E] ([2]; 300 mg BID, N = 6): [3] | Neutropenia, All Grades, [E] ([2]; 300 mg BID, N = 6): [5] | Neutropenia, Grade 3 or Higher, [E] ([2]; 300 mg BID, N = 6): [1] | Anemia, All Grades, [E] ([2]; 400 mg BID, N = 8): [1] | Anemia, Grade 3 or Higher, [E] ([2]; 400 mg BID, N = 8): [1] | Neutropenia, All Grades, [E] ([2]; 400 mg BID, N = 8): [3] | Thrombocytopenia, All Grades, [E] ([2]; 400 mg BID, N = 8): [2] | Thrombocytopenia, Grade 3 or Higher, [E] ([2]; 400 mg BID, N = 8): [2] | tolerability overall ([2]; 31 NHL patients, 50 mg QD to 400 mg BID): well tolerated; also recorded: good safety and tolerance | creatine phosphokinase (CPK/CK) elevation ([2]; WM patient, 200 mg po BID, asymptomatic, resolved with exercise moderation): grade 2 | tolerability ([2]; WM patient, first dose level, 50 mg): tolerated therapy well without adverse events | Tumor Reduction [3]: 35% | fatigue ([4]; 200 mg po BID, by the summer of 2019): completely resolved | response ([4]; cycles 7 and 8, 100 mg po BID): stable disease | half-life ([5]; human, plasma, oral administration): ~6 h | accumulation at steady state ([5]; multiple daily twice dose administration): Moderate accumulation | time of maximum plasma concentrations post dose ([5]; oral administration): 0.5 to 8 h | NF-κB phospho-p50 expression in tumor biopsies (NF-κB p-p50): significant downregulation; also recorded: inhibited | expression of NF-kB p-p50 S337 (Western blot) [6]: downregulated | expression of NF-kB p-p50 S337 (Western blot) [7]: downregulated | DLT 1st cycle ([8]; 3 patients with hr-MDS): No DLT | dose reductions for Gr. 3 dizziness ([8]; C2): 1 | marrow response (AML or high risk MDS): several marrow complete responses
